Results taken from patent US4849425A, “Readily absorbable pharmaceutical composition” (Ishihara Sangyo Kaisha Ltd., priority 1985, dated 1989).

Tests used:
[1] = Absorbability through the gut, oral, aqueous and non-aqueous dispersing solvents, plasma concentration in rats (Test Example 5); type: in vivo, Wistar male rats; settings: rat; for absorption: oral; for concentration at 1 h / concentration at 3 h / concentration at 5 h / concentration at 24 h: plasma, po, 20 mg/kg
Experimental: 20 mg of Compound No. 3 was taken into a mortar, and 5 ml of an aqueous solution containing 1.7% of β-type cyclodextrin or 2% or 40% of dimethyl β-type cyclodextrin was added under stirring to obtain a suspension of Compound No. 3. The suspension was orally administered by an oral sonde to a group of three Wistar male rats (body weight: 200-250g). The dose of Compound No. 3 was 20 mg/kg rat body weight. Further, Compound No. 3 was likewise suspended in an aqueous solution containing 0.5% of sodium salt of carboxymethyl cellulose, and the suspension was used as the control ( in FIG. 3). After the administration, the blood was periodically sampled, and the plasma was separated. After the removal of protein by acetonitrile, Compound No. 3 in the plasma was quantitatively analyzed by a high speed liquid chromatography as shown in Test Example 1.
The changes with time of the concentration of Compound No. 3 in the plasma after the oral administration were studied in the same manner as in Test Example 3 by using an aqueous solution of 10% (weight/volume) hydroxypropyl cellulose (HPC-L, manufactured by Nippon Soda Co., Ltd.), 2.5% (weight/volume) methyl cellulose (Metrose SM 15,manufactured by Shin-Etsu Chemical Co., Ltd.), 10% (weight/volume) hydroxypropylmethyl cellulose (Metrose TC5R, manufactured by Shin-Etsu Chemical Co., Ltd.), 2.5% (weight/volume) sodium salt of carboxymethyl cellulose (manufactured by Wako Junyaku K.K.), 10% (weight/volume) sucrose fatty acid ester (P1570, manufactured by Hishito K.K.) or 10% (weight/volume) pluronic F 68 (manufactured by Asahi Denka Kogyo K.K.), as an aqueous dispersing solvent for Compound No. 3, and medium-chain length fatty acid triglyceride (ODO, manufactured by Nisshin Seiyu K.K.), ODO containing 5% (weight/volume) sucrose fatty acid ester (S-370F, manufactured by Hishito K.K.), or a refined soybean oil (The Green Cross Corporation) or refined sesame oil (Takemoto Yushi K.K.) containing 5% (weight/volume) of S-370F, as a non-aqueous dispersing solvent, and an aqueous solution of 50% (weight/volume) dimethyl β-type cyclodextrin and an aqueous solution of 0.5% (weight/volume) sodium carboxymethyl cellulose, as the control.

[2] = Oral capsules, plasma concentration in beagle dogs (Test Example 7); type: in vivo; settings: for Concentration in the plasma: 0
Experimental: The capsules prepared in Example 3 corresponding to 20 mg/kg of Compound No. 3 were orally administered to three beagle dogs (male: body weight: 5 kg). Then, the blood was periodically sampled from the branchium vein, and the concentration of Compound No. 3 in the plasma was measured. To the control group, a suspension of Compound No. 3 (20 mg/ml) in an aqueous solution containing 0.5% of sodium salt of carboxymethyl cellulose was administered. It is evident that the present invention, the absorbability of Compound No. 3 increased.

[3] = 0.5% (w/v) sodium salt of carboxymethyl cellulose (control), oral 20 mg/kg
[4] = 2.5% (w/v) methyl cellulose, oral 20 mg/kg
[5] = 2.5% (w/v) sodium salt of carboxymethyl cellulose, oral 20 mg/kg
[6] = 5% (w/v) Pluronic F31/ODO, oral 20 mg/kg
[7] = 5% (w/v) sucrose fatty acid ester/ODO, oral 20 mg/kg
[8] = 5% (w/v) sucrose fatty acid ester/refined sesame oil, oral 20 mg/kg
[9] = 5% (w/v) sucrose fatty acid ester/refined soybean oil, oral 20 mg/kg
[10] = 10% (w/v) Pluronic F68, oral 20 mg/kg
[11] = 10% (w/v) hydroxypropyl cellulose, oral 20 mg/kg
[12] = 10% (w/v) hydroxypropylmethyl cellulose, oral 20 mg/kg
[13] = 10% (w/v) sucrose fatty acid ester, oral 20 mg/kg
[14] = 50% (w/v) dimethyl β-type cyclodextrin, oral 20 mg/kg
[15] = medium-chain length fatty acid triglyceride (ODO), oral 20 mg/kg
[16] = dog, plasma, po, 20 mg/kg, control, suspension in 0.5% sodium salt of carboxymethyl cellulose
[17] = dog, plasma, po, 20 mg/kg, polyethylene glycol 400 capsules of Example 3, oral 20 mg/kg

Compound: O=C(NC(=O)c1ccccc1[N+](=O)[O-])Nc1ccc(Oc2ncc(Br)cn2)c(Cl)c1 [Compound No. 3, N-(2-nitrobenzoyl)-N'-[4-(5-bromo-2-pyrimidinyloxy)-3-chlorophenyl]urea]
- absorption ([1]; 50% (w/v) dimethyl β-type cyclodextrin, among the aqueous dispersing solvents): highest absorption
- absorption ([1]; ODO containing 5% (w/v) Pluronic F32): high absorption
- concentration at 1 h [1, 3]: 30 ng/mL
- concentration at 3 h [1, 3]: 100 ng/mL
- concentration at 5 h [1, 3]: 150 ng/mL
- concentration at 24 h [1, 3]: 10 ng/mL
- concentration at 1 h [1, 4]: 60 ng/mL
- concentration at 3 h [1, 4]: 110 ng/mL
- concentration at 5 h [1, 4]: 110 ng/mL
- concentration at 24 h [1, 4]: 30 ng/mL
- concentration at 1 h [1, 5]: 40 ng/mL
- concentration at 3 h [1, 5]: 110 ng/mL
- concentration at 5 h [1, 5]: 90 ng/mL
- concentration at 24 h [1, 5]: 90 ng/mL
- concentration at 1 h [1, 6]: 100 ng/mL
- concentration at 3 h [1, 6]: 200 ng/mL
- concentration at 5 h [1, 6]: 220 ng/mL
- concentration at 24 h [1, 6]: 470 ng/mL
- concentration at 1 h [1, 7]: 60 ng/mL
- concentration at 3 h [1, 7]: 180 ng/mL
- concentration at 5 h [1, 7]: 200 ng/mL
- concentration at 24 h [1, 7]: 220 ng/mL
- concentration at 1 h [1, 8]: 140 ng/mL
- concentration at 3 h [1, 8]: 490 ng/mL
- concentration at 5 h [1, 8]: 570 ng/mL
- concentration at 24 h [1, 8]: 370 ng/mL
- concentration at 1 h [1, 9]: 120 ng/mL
- concentration at 3 h [1, 9]: 500 ng/mL
- concentration at 5 h [1, 9]: 550 ng/mL
- concentration at 24 h [1, 9]: 390 ng/mL
- concentration at 1 h [1, 10]: 110 ng/mL
- concentration at 3 h [1, 10]: 190 ng/mL
- concentration at 5 h [1, 10]: 230 ng/mL
- concentration at 24 h [1, 10]: 120 ng/mL
- concentration at 1 h [1, 11]: 50 ng/mL
- concentration at 3 h [1, 11]: 120 ng/mL
- concentration at 5 h [1, 11]: 110 ng/mL
- concentration at 24 h [1, 11]: 40 ng/mL
- concentration at 1 h [1, 12]: 140 ng/mL
- concentration at 3 h [1, 12]: 310 ng/mL
- concentration at 5 h [1, 12]: 280 ng/mL
- concentration at 24 h [1, 12]: 100 ng/mL
- concentration at 1 h [1, 13]: 40 ng/mL
- concentration at 3 h [1, 13]: 180 ng/mL
- concentration at 5 h [1, 13]: 180 ng/mL
- concentration at 24 h [1, 13]: 240 ng/mL
- concentration at 1 h [1, 14]: 280 ng/mL
- concentration at 3 h [1, 14]: 580 ng/mL
- concentration at 5 h [1, 14]: 490 ng/mL
- concentration at 24 h [1, 14]: 360 ng/mL
- concentration at 1 h [1, 15]: 120 ng/mL
- concentration at 3 h [1, 15]: 170 ng/mL
- concentration at 5 h [1, 15]: 210 ng/mL
- concentration at 24 h [1, 15]: 240 ng/mL
- absorption ([1]; refined soybean oil or refined sesame oil containing 5% (w/v) sucrose fatty acid ester, among the non-aqueous dispersing solvents): high absorption almost equal to dimethyl β-type cyclodextrin
- Concentration in the plasma ([2]; control, suspension in 0.5% sodium salt of carboxymethyl cellulose, oral): 0 ng/mL
- concentration at 1 h [2, 16]: 70 ng/mL
- concentration at 2 h [2, 16]: 100 ng/mL
- concentration at 1 h [2, 17]: 610 ng/mL
- concentration at 2 h [2, 17]: 1120 ng/mL
- concentration at 4 h ([2]; dog, plasma, po, 20 mg/kg, polyethylene glycol 400 capsules of Example 3, oral 20 mg/kg, 4 hrs): 1110 ng/mL
- absorbability ([2]; polyethylene glycol 400 capsules of Example 3, oral): increased
- Concentration in the plasma ([2]; polyethylene glycol 400 capsules of Example 3, oral 20 mg/kg): 0 ng/mL
